From paper PMC7714403 (JCI Insight, 2020)
pIC50, pKd: −log10 of the molar value.

Experiments:
IKKa = IKKa (Homo sapiens, UniProt O15111); assay: KiNativ, OCI cells live cell; type: cell-based; details: 2 h, labeling site Lys2, peptide […]
GCK = target: T1, GCK (Homo sapiens, UniProt Q12851); assay: Kinase assay by Reaction Biology; type: biochemical; parameters: purchased Eurofins DiscoverX
T1 sequence (Q12851 1-820): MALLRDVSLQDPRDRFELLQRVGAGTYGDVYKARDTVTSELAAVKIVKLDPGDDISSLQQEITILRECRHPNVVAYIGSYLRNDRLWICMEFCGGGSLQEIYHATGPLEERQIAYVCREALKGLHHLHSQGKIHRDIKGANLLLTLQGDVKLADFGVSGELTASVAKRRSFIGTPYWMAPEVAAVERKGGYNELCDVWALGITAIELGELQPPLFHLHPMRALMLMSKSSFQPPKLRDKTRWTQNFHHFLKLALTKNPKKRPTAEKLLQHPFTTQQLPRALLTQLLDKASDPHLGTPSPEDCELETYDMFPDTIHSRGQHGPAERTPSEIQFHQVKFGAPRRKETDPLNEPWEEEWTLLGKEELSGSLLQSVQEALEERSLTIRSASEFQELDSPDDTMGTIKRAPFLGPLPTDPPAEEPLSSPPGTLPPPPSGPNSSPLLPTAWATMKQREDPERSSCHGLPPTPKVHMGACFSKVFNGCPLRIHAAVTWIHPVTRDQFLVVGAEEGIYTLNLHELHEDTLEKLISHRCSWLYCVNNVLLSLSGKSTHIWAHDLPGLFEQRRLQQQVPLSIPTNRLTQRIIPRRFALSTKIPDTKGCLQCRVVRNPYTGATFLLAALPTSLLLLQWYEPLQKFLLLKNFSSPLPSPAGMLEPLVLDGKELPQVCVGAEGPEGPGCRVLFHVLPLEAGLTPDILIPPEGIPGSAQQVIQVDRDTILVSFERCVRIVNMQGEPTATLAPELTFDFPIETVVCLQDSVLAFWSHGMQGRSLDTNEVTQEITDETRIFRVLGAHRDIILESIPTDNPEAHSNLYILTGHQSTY

ROCK1 = ROCK1 (Homo sapiens, UniProt Q13464); assay: KiNativ, OCI cells live cell; type: cell-based; details: 2 h, labeling site Other, peptide […]
MAP3K4 = MAP3K4 (Homo sapiens, UniProt Q9Y6R4); assay: KiNativ, OCI cells live cell; type: cell-based; details: 2 h
TYK2 = target: T2, TYK2 (Homo sapiens, UniProt P29597); assay: KdELECT binding assay
T2 construct: purchased Eurofins DiscoverX

CaMKK2 = CaMKK2 (Homo sapiens, UniProt Q96RR4); assay: KiNativ, OCI cells live cell; type: cell-based; details: 2 h, labeling site Lys2, peptide […]
ULK1 = target: T3, ULK1 (Homo sapiens, UniProt O75385); assay: KiNativ, OCI cells live cell; type: cell-based
T3 sequence (O75385 1-1050): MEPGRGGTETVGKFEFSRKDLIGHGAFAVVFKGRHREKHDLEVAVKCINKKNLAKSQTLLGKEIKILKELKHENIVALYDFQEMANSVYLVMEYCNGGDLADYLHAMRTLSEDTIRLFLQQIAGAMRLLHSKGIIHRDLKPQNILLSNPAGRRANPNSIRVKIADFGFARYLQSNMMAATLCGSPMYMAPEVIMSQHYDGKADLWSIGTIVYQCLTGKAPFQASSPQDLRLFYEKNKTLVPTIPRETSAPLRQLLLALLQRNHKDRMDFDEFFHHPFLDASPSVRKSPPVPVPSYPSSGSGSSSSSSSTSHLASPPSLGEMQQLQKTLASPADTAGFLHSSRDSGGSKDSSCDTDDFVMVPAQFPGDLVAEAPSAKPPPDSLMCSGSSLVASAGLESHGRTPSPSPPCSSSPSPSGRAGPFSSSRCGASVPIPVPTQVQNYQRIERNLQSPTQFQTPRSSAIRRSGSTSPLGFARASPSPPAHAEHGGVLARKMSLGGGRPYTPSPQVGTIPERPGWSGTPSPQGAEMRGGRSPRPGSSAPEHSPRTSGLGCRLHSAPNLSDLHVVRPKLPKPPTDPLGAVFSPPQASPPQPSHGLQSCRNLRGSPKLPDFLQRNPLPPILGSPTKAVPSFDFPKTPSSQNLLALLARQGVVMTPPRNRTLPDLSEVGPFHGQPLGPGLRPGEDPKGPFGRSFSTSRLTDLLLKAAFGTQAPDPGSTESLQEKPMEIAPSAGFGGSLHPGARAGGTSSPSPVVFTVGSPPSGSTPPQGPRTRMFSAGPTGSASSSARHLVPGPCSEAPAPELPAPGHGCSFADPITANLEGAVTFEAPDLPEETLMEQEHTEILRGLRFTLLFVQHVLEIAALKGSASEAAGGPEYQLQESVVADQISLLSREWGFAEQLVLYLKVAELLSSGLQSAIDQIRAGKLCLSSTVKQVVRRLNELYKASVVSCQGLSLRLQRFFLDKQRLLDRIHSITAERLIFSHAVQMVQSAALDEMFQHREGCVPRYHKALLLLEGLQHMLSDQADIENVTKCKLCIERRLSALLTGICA

Sequence of MAP3K4 (Q9Y6R4 whole entry): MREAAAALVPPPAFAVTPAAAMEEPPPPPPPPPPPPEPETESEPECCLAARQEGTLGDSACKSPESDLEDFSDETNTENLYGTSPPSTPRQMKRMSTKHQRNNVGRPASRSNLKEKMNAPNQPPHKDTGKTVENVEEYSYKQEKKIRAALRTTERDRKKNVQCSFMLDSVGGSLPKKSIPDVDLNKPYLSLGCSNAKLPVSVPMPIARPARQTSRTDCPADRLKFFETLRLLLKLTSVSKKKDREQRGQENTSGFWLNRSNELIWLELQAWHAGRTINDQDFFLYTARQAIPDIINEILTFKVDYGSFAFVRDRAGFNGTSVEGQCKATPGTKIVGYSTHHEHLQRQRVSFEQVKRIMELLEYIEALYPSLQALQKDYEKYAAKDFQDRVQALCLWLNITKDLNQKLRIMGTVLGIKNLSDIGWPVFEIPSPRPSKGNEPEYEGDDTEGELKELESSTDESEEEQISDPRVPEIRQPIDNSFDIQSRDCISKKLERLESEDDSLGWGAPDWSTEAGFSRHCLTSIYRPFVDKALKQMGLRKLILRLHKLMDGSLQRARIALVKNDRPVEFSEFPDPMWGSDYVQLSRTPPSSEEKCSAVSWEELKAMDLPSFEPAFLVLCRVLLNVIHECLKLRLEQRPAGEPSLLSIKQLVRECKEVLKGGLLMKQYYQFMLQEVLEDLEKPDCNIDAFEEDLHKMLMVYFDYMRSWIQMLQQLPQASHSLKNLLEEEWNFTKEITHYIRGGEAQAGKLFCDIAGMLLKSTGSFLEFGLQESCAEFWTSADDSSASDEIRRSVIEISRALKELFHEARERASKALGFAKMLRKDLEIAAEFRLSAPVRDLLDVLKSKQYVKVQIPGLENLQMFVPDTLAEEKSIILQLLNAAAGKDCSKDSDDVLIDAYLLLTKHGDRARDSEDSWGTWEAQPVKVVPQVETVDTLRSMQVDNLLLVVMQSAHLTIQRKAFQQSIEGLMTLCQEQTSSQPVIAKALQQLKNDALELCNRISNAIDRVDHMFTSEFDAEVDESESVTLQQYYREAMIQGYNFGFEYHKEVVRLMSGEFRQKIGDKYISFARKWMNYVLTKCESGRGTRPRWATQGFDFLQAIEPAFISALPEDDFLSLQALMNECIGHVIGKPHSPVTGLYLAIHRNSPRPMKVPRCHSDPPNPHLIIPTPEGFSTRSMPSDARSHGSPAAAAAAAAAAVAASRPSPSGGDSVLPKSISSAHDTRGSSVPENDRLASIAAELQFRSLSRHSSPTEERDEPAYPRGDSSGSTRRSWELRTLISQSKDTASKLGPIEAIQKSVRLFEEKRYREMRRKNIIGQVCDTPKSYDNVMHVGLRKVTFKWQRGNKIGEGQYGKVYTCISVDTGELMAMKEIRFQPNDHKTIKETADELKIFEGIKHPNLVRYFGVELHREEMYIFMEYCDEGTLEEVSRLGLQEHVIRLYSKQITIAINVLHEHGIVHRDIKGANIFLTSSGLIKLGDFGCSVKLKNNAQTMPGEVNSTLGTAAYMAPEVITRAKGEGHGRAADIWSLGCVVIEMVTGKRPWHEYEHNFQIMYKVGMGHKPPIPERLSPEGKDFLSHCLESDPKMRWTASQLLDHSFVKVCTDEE
Sequence of ROCK1 (Q13464 whole entry): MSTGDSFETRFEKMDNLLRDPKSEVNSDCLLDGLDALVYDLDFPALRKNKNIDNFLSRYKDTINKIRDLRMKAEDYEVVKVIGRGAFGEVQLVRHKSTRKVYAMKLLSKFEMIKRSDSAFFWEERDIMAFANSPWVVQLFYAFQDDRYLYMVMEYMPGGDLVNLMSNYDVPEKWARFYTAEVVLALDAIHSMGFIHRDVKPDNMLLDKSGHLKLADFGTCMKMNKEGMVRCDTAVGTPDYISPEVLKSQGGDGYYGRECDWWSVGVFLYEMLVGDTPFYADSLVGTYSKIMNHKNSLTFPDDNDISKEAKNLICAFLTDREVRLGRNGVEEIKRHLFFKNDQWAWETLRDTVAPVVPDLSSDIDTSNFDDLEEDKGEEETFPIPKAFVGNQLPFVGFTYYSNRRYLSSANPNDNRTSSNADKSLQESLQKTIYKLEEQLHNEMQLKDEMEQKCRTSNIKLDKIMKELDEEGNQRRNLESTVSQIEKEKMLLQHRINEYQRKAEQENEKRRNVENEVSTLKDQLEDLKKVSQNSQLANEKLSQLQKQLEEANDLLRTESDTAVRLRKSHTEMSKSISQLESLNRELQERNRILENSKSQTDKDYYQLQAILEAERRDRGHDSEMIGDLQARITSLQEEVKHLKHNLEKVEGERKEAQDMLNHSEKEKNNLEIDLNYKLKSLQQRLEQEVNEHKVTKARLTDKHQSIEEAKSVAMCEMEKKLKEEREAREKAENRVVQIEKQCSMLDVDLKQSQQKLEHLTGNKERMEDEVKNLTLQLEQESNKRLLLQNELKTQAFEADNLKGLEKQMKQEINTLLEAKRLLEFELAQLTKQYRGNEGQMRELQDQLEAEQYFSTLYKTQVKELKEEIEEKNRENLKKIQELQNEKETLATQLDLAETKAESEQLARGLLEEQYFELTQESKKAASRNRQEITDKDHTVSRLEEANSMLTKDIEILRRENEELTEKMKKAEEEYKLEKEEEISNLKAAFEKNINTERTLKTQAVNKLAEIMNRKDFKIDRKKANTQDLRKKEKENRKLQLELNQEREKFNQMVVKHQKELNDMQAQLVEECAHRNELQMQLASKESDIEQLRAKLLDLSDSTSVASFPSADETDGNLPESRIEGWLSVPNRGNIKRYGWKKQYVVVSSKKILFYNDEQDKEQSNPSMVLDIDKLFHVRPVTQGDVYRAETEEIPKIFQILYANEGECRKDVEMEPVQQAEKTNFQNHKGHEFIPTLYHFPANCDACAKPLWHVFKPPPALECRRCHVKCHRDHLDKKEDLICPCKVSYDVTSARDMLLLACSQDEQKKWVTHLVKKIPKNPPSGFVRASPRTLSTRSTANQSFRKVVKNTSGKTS
T2 sequence (P29597 whole entry): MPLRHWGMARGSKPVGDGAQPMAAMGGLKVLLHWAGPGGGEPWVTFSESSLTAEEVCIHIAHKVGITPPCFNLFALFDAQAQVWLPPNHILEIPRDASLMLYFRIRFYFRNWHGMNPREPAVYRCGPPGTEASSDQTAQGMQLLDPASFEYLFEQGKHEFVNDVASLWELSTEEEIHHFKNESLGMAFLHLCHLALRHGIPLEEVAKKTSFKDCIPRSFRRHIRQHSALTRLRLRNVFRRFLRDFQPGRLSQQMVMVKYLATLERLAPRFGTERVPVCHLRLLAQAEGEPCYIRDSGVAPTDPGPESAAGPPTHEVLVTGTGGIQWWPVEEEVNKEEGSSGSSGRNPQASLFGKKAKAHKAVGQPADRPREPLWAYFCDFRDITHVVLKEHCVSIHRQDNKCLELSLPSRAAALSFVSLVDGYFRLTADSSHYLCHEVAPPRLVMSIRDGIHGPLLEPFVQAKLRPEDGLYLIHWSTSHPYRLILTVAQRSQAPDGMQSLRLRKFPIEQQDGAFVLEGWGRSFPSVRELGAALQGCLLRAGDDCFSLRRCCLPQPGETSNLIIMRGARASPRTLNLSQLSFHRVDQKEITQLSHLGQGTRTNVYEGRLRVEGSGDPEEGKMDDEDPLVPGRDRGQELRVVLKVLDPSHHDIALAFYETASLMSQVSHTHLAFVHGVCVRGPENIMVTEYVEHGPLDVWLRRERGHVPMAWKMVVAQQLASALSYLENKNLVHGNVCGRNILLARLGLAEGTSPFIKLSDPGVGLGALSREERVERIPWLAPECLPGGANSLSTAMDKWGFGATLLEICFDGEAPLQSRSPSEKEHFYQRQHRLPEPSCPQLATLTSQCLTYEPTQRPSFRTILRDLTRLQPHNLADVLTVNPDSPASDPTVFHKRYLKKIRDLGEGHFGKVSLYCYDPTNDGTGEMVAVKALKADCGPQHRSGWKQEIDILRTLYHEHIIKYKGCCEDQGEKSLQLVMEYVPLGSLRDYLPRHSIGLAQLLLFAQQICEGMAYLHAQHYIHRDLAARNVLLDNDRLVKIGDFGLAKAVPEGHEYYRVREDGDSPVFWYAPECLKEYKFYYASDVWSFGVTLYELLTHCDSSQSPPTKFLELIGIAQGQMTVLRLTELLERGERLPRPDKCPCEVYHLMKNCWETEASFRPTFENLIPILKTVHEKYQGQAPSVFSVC
Sequence of CaMKK2 (Q96RR4 whole entry): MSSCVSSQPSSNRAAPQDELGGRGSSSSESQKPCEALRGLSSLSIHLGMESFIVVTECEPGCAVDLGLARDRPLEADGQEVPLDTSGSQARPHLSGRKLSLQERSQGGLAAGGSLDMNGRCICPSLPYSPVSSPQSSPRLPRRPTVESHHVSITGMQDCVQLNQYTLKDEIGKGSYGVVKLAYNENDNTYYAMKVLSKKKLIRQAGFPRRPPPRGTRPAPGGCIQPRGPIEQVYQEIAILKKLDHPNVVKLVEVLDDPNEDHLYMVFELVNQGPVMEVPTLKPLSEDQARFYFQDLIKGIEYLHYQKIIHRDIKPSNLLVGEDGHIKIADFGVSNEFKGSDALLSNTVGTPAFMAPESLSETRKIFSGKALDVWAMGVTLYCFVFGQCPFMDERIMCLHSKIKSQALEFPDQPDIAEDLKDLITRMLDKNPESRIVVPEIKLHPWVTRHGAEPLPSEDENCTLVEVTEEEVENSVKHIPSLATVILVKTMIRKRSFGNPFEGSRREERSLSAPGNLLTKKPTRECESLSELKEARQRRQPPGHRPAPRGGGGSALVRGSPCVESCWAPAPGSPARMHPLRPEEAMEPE

With `CN1CCN(Cc2ccc(Nc3ncc(Cl)c(Nc4ccccc4S(=O)(=O)N(C)C)n3)cc2)CC1` [TP-0903] the inhibition at 0.1 µM (IKKa) was 2.6%, the pIC50 (GCK) was 8.60 and the inhibition at 0.1 µM (ROCK1) was 25%. The inhibition at 0.1 µM (MAP3K4; labeling site Lys1, peptide VYTCISVDTGELMAMKEIR) was 2.7%, the inhibition at 0.1 µM (MAP3K4; labeling site Lys2, peptide DIKGANIFLTSSGLIK) was 24.7% and the pKd (TYK2) was greater than 8.30. It also gave an inhibition at 0.1 µM (CaMKK2) of 63.2%, an Inhibition (ULK1; labeling site Lys1, peptide HDLEVAVKCINKK) of 23.3% and an Inhibition (ULK1; labeling site Lys2, peptide DLKPQNILLSNPAGR) of 59.5%.
